This experiment concerns the target T1, M4 receptor (Homo sapiens, UniProt P08173).
T1 construct: expressed in transfected cells; host or cells: CHO (M4-CHO cells)
T1 sequence (P08173 1-479): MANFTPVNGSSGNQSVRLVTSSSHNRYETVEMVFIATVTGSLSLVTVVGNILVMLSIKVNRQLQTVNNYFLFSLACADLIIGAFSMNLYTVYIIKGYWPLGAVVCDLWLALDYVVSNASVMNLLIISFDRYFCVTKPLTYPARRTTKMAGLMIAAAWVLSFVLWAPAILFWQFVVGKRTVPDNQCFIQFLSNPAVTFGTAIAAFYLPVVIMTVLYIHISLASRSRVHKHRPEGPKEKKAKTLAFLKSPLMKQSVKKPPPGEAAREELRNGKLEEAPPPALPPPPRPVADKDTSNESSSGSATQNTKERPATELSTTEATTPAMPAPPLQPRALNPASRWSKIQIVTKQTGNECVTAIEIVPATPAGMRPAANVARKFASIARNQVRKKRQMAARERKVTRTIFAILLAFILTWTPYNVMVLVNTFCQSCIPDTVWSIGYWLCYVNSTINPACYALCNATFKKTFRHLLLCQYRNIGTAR
As to the kind of experiment: PAM agonistic activity of compound on M4 receptor (FLIPR Calcium 6 assay in M4-CHO cells). It counts as cell-based. The settings on record: with acetylcholine (Ach), final concentration 3 nM. The method, then:
• 1). Cell plating: M4-CHO cells were digested, collected, and resuspended. After cell counting, the cell suspension was seeded into a 384-well cell plate at a density of: 1.2 × 10^4 cells/25 µL/well. The cell plate was then cultured in a 37°C, 5% CO2 incubator for about 16-20 h. • 2). Day 2: Assay Buffer was prepared according to the instructions of the FLIPR Calcium 6 Assay Kit. Component A (20×) was thawed to room temperature and diluted with the Assay Buffer to prepare a loading buffer (1×), which was stored at room temperature until use. • 3). The culture medium was removed from the cell plate. 40 µL of the loading buffer (1×) was quickly added to each well. The cell plate was then centrifuged and incubated at 37°C in the dark for 120 min. • 4). Working solutions of the positive control compound and the test compounds were prepared. An acetylcholine (Ach) agonist compound solution was prepared (final concentration: 3 nM). The PAM compound and the Ach agonist solution were mixed at a 1 : 1 ratio, and the mixture was transferred into a 384-well compound source plate at 20 µL per well. • 5). The cell plate, the compound source plate, and the pipette tips were placed into the corresponding positions within the FLIPR instrument. 10 µL of the diluted compound from step 4 was added into each experimental well using the FLIPR Tetra. Data was collected at the wavelength of 515 nm-575 nm. • 6). The signal values were plotted against the compound concentrations. Nonlinear regression analysis was performed using GraphPad Prism software for curve fitting and EC50 calculation.
The experimental results are shown in Table 1, where A represents EC50 < […]; B represents 100 nM ≤ EC50 < 500 nM, and C represents 500 nM ≤ EC50. Table 1. Agonistic activity of compounds on M4 receptor

Each structure is given as a SMILES string.

As usually defined, the EC50 is the concentration that produces a half-maximal response. Take `Cc1ccn(-c2cc(N3CC(CC(=O)N4Cc5nc(COC6CC6)cc(C)c5C4)C3)ccn2)n1` [Compound 91]: the EC50 is < 0.1 µM.
Then `Cc1ccn(-c2cc(N3CC(CC(=O)N4Cc5nc6c(c(C)c5C4)CCC6)C3)ncn2)n1` [Compound 92], with < 0.1 µM; and `Cc1c2c(nc3c1CN(C(=O)CC1CN(c4ccnc(OC5CCOC5)c4)C1)C3)CCC2` (stereo not shown) [Compound 93], with < 0.1 µM; and `Cc1c2c(nc3c1CN(C(=O)CC1CN(c4ccc5c(c4)CCC5=O)C1)C3)CCC2` [Compound 94], with < 0.1 µM.
Then `Cc1c2c(nc3c1CN(C(=O)CC1CN(c4ccnc(-n5cccn5)c4)C1)C3)CCC2` [Compound 95], with < 0.1 µM; and `Cc1cc(C)c2c(n1)CN(C(=O)CC1CN(c3ccnc(-c4nc(C)nn4C)c3)C1)C2` [Compound 96], with < 0.1 µM; and `Cc1cc(C)c2c(n1)CN(C(=O)CC1CN(c3ccnc(-c4ncnn4C)c3)C1)C2` [Compound 97], with < 0.1 µM.
Then `Cc1ccn(-c2cc(N3CC(CC(=O)N4Cc5nc(C6CCOCC6)cc(C)c5C4)C3)ccn2)n1` [Compound 98], with < 0.1 µM.
In the case of `Cc1ccn(-c2cc(N3CC(CC(=O)N4Cc5c(C)cc(=O)n(C)c5C4)C3)ccn2)n1` [Compound 99], the EC50 is < 0.1 µM.
Then `Cc1cc(=O)n(C)c2c1CN(C(=O)CC1CN(c3ccnc(C(F)(F)F)c3)C1)C2` [Compound 100], with < 0.1 µM; and `Cc1cc(=O)n(C)c2c1CN(C(=O)CC1CN(c3ccnc(OC4CC(F)(F)C4)c3)C1)C2` [Compound 101], with < 0.1 µM.
Then `Cc1cc(C)c2c(n1)CN(C(=O)CC1CN(c3cnnc(-n4ccc(C)n4)c3)C1)C2` [Compound 102], with < 0.1 µM; and `Cc1cc(C#N)c(F)c2c1CN(C(=O)CC1CN(c3ccnc(OC4CC(F)(F)C4)c3)C1)C2` [Compound 103], with < 0.1 µM; and `Cc1nc(C#N)c2c(n1)CN(C(=O)CC1CN(c3ccnc(OC4CC(F)(F)C4)c3)C1)C2` [Compound 107], with < 0.1 µM.
Then `Cc1cc(C)c2c(n1)CN(C(=O)CC1CN(c3ccnc(-n4cnnc4)c3)C1)C2` [Compound 108], with < 0.1 µM; and `Cc1cc(-c2cnn(C)c2)nc2c1CN(C(=O)CC1CN(c3ccnc(C(F)(F)F)c3)C1)C2` [Compound 109], with < 0.1 µM; and `Cc1cc(-c2ccn(C)n2)nc2c1CN(C(=O)CC1CN(c3ccnc(C(F)(F)F)c3)C1)C2` [Compound 112], with < 0.1 µM.
Consider `Cc1nc(C#N)nc2c1CN(C(=O)CC1CN(c3ccnc(OC4CC(F)(F)C4)c3)C1)C2` [Compound 115], for which the EC50 is < 0.1 µM.
For `Cc1c2c(n(C)c(=O)c1Cl)CN(C(=O)CC1CN(c3ccnc(OC4CC(F)(F)C4)c3)C1)C2` [Compound 116], the EC50 was < 0.1 µM.
As for `Cc1cc(=O)n(C)c2c1CN(C(=O)CC1CN(c3ccnc(O[C@H]4CCOC4)c3)C1)C2` [Compound 117], the EC50 is < 0.1 µM.
Then `Cc1cc(=O)n(C)c2c1CN(C(=O)CC1CN(c3ccnc(O[C@@H]4CCOC4)c3)C1)C2` [Compound 118], with < 0.1 µM.
Then `Cc1cc(=O)n(C)c2c1CN(C(=O)CC1CN(c3ccnc(-n4ccc(F)n4)c3)C1)C2` [Compound 119], with < 0.1 µM.
On to `Cc1cc(C)c2c(n1)CN(C(=O)CC1CN(c3ccnc(C(=O)c4cnn(C)c4)c3)C1)C2` [Compound 120], for which the EC50 was < 0.1 µM.
Then `C=C1CC(Oc2cc(N3CC(CC(=O)N4Cc5nc(C)cc(C)c5C4)C3)ccn2)C1` [Compound 121], with < 0.1 µM.
Then `Cc1ccn(-c2cc(N3CC(CC(=O)N4Cc5nc(-c6cnn(C)c6)nc(C)c5C4)C3)ccn2)n1` [Compound 123], with < 0.1 µM.
Then `Cc1cc(C2CCOC2)nc2c1CN(C(=O)CC1CN(c3ccnc(C(F)(F)F)c3)C1)C2` (stereo not shown) [Compound 125], with < 0.1 µM.
For `Cc1ncn(-c2cc(N3CC(CC(=O)N4Cc5c(C)cc(=O)n(C)c5C4)C3)ccn2)n1` [Compound 127], the EC50 was < 0.1 µM.
Then `Cc1ncn(-c2cc(N3CC(CC(=O)N4Cc5nc(-c6cnn(C)c6)nc(C)c5C4)C3)ccn2)n1` [Compound 130], with < 0.1 µM.
With `Cc1cc(=O)n(C)c2c1CN(C(=O)CC1CN(c3ccc4c(c3)CCC4=O)C1)C2` [Compound 131], the EC50 is < 0.1 µM.
For the molecule `Cc1ccn(-c2cc(N3CC(CC(=O)N4Cc5c(C)cc(=O)n(C)c5C4)C3)cnn2)n1` [Compound 133], the EC50 is < 0.1 µM.
Then `Cc1cc(C)c2c(n1)CN(C(=O)CC1CN(c3ccnc(-n4ccc(C(F)F)n4)c3)C1)C2` [Compound 134], with < 0.1 µM; and `COc1nc(C)c2c(n1)CN(C(=O)CC1CN(c3ccnc(OC4CC(F)(F)C4)c3)C1)C2` [Compound 137], with < 0.1 µM.
As to `Cc1cc(=O)n(C)c2c1CN(C(=O)CC1CN(c3ccnc(OC4CC4)c3)C1)C2` [Compound 138], the EC50 was < 0.1 µM.
In the case of `Cc1cc(=O)n(C)c2c1CN(C(=O)OC1CN(c3ccnc(OC4CC(F)(F)C4)c3)C1)C2` [Compound 139], the 50% effective concentration (EC50) was < 0.1 µM.
Then `Cn1c2c(c(F)cc1=O)CN(C(=O)CC1CN(c3ccnc(OC4CC(F)(F)C4)c3)C1)C2` [Compound 141], with < 0.1 µM; and `Cc1nc(-c2cnn(C)c2)nc2c1CN(C(=O)CC1CN(c3ccnc(OC4CC(F)(F)C4)c3)C1)C2` [Compound 143], with < 0.1 µM.
Then `Cc1nc(-c2ccnn2C)nc2c1CN(C(=O)CC1CN(c3ccnc(OC4CC(F)(F)C4)c3)C1)C2` [Compound 144], with < 0.1 µM; and `Cc1ncn(-c2cc(N3CC(CC(=O)N4Cc5nc(-c6ccnn6C)nc(C)c5C4)C3)ccn2)n1` [Compound 146], with < 0.1 µM.
Then `Cc1cc(-c2cnn(C)c2)nc2c1CN(C(=O)CC1CN(c3ccnc(OC4CC4)c3)C1)C2` [Compound 148], with < 0.1 µM; and `Cc1cc(C)c2c(n1)CN(C(=O)CC1CN(c3cc(-n4ccc(F)n4)ncc3F)C1)C2` [Compound 149], with < 0.1 µM; and `Cc1ncn(-c2cc(N3CC(CC(=O)N4Cc5nc(-c6cnn(C(F)F)c6)cc(C)c5C4)C3)ccn2)n1` [Compound 150], with < 0.1 µM.
Regarding `Cc1cc(-c2ccnn2C)nc2c1CN(C(=O)CC1CN(c3ccnc(OC4CC(F)(F)C4)c3)C1)C2` [Compound 158], the 50% effective concentration (EC50) was < 0.1 µM.
Then `Cc1cc(=O)n(C)c2c1CN(C(=O)CC1CN(c3ccnc(-n4ccc(C(F)(F)F)n4)c3)C1)C2` [Compound 160], with < 0.1 µM; and `Cc1cc(-c2cnn(C(F)F)c2)nc2c1CN(C(=O)CC1CN(c3ccnc(C(F)(F)F)c3)C1)C2` [Compound 162], with < 0.1 µM; and `Cc1ncn(-c2nc(C)c3c(n2)CN(C(=O)CC2CN(c4ccnc(OC5CC(F)(F)C5)c4)C2)C3)n1` [Compound 163], with < 0.1 µM.
Then `C=C1CC(Oc2cc(N3CC(CC(=O)N4Cc5c(C)cc(=O)n(C)c5C4)C3)ccn2)C1` [Compound 165], with < 0.1 µM.
Then `C=C1CC(Oc2cc(N3CC(CC(=O)N4Cc5nc(-c6cnn(C)c6)cc(C)c5C4)C3)ccn2)C1` [Compound 166], with < 0.1 µM; and `Cc1nc(-c2cnn(C)c2)nc2c1CN(C(=O)CC1CN(c3ccnc(OC4CCOC4)c3)C1)C2` (stereo not shown) [Compound 168], with < 0.1 µM; and `Cc1cc(-c2cnn(C)c2)nc2c1CN(C(=O)CC1CN(c3ccnc(OC4CCOC4)c3)C1)C2` (stereo not shown) [Compound 169], with < 0.1 µM.
In the case of `Cc1cc(-c2cnn(C)c2)nc2c1CN(C(=O)CC1CN(c3ccnc(OC4CCOC4)c3)C1)C2` (stereo not shown) [Compound 170], the EC50 is < 0.1 µM.
In the case of `Cc1cc(-c2cnn(C)c2)nc2c1CN(C(=O)CC1CN(c3ccnc(Oc4cnn(C)c4)c3)C1)C2` [Compound 171], the concentration for a half-maximal effect (EC50) was < 0.1 µM.
Then `Cc1ncn(-c2cc(C)c3c(n2)CN(C(=O)CC2CN(c4ccnc(C(F)(F)F)c4)C2)C3)n1` [Compound 172], with < 0.1 µM; and `Cc1nc(-c2cnn(C(F)F)c2)nc2c1CN(C(=O)CC1CN(c3ccnc(C(F)(F)F)c3)C1)C2` [Compound 173], with < 0.1 µM.
Then `Cc1ncc(-c2nc(C)c3c(n2)CN(C(=O)CC2CN(c4ccnc(C(F)(F)F)c4)C2)C3)s1` [Compound 174], with < 0.1 µM; and `Cc1c2c(n(C)c(=O)c1F)CN(C(=O)CC1CN(c3ccnc(OC4CC(F)(F)C4)c3)C1)C2` [Compound 175], with < 0.1 µM.
